Measured values taken from PMC8165695 (Journal of Medicinal Chemistry, 2021).
Where a SMILES comes first, the peptide text is derived from it. [ ]: non-standard residue; d: D form. The star is where a group is joined. Sta = CC(C)C[C@H](N)[C@@H](O)CC(=O)O; Isovaleryl = CC(C)CC(=O)*

Tests used:
[1] = tested on: C. neoformans strains H99 and may1Δ; assay: Yeast culture activity assay; assay type: cell-based, Cryptococcus neoformans; details: for terminal culture density of yeast: 48 h, 0.1, 1.0, 10 or 50 μM compound
HepG2 = assay: Cytotoxicity, CellTiter-Glo 2.0 Cell Viability Assay; assay type: cell-based, human; details: HepG2 cell line; comparators darunavir, amprenavir, indinavir (ref 40)
HIV-1 Pr wild-type = details: cited from earlier work
[2] = biological target: HIV-1 Pr drug resistance-associated mutants; details: cited from earlier work
May1 = biological target: T1, May1 (Cryptococcus neoformans, UniProt J9VS02); assay: May1 Ki determination, fluorometric assay with IQ-2 substrate; assay type: biochemical
T1 sequence (J9VS02 80-434 limits assumed): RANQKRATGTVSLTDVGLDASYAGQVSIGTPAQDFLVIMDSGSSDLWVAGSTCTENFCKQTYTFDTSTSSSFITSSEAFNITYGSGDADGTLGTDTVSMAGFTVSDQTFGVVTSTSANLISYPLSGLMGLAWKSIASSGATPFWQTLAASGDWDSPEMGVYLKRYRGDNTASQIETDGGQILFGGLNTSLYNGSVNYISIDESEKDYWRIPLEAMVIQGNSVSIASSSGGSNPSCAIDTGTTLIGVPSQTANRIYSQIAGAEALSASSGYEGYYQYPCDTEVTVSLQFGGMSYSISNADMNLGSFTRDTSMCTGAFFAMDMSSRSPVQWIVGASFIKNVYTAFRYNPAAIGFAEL

SMILES: CC(C)[C@H](NC(=O)[C@H](CCC(=O)O)NC(=O)C[C@H](O)[C@H](Cc1ccccc1)NC(=O)OCc1ccccc1)C(N)=O [Compound 3a, (S)-5-(((S)-1-amino-3-methyl-1-oxobutan-2-yl)amino)-4-((3S,4S)-4-(((benzyloxy)carbonyl)amino)-3-hydroxy-5-phenylpentanamido)-5-oxopentanoic acid]
- terminal culture density of yeast ([1]; H99, YNB minimal medium): dose-dependent reductions in terminal culture density

SMILES: CCCC[C@H](NC(=O)[C@H](CCC(=O)O)NC(=O)C[C@H](O)[C@H](Cc1ccccc1)NC(=O)OCc1ccccc1)C(N)=O [Compound 4a, (S)-5-(((S)-1-amino-1-oxohexan-2-yl)amino)-4-((3S,4S)-4-(((benzyloxy)carbonyl)amino)-3-hydroxy-5-phenylpentanamido)-5-oxopentanoic acid]
- terminal culture density of yeast ([1]; H99, YNB minimal medium): dose-dependent reductions in terminal culture density

SMILES: NC(=O)[C@H](CCc1ccccc1)NC(=O)[C@H](CCC(=O)O)NC(=O)C[C@H](O)[C@H](Cc1ccccc1)NC(=O)OCc1ccccc1 [Compound 13a, (S)-5-(((S)-1-amino-1-oxo-4-phenylbutan-2-yl)amino)-4-((3S,4S)-4-(((benzyloxy)carbonyl)amino)-3-hydroxy-5-phenylpentanamido)-5-oxopentanoic acid]
- cytotoxicity compared with clinically used protease inhibitors (HepG2): on par with or lower than that of clinically used protease inhibitors
- terminal culture density of yeast at 50 μM ([1]; H99, YNB minimal medium, 48 h, 50 μM): nearly phenocopying the may1Δ mutant
- terminal culture density of yeast ([1]; H99, YNB minimal medium): dose-dependent reductions in terminal culture density
- culture density during logarithmic phase growth ([1]; H99, unbuffered YNB, 50 μM): achieved similar densities to 1b- or DMSO-treated controls during the logarithmic phase growth
- saturation density phenotype in buffered medium ([1]; YNB with 50 mM MES, pH 6.5, 50 μM): eliminated the saturation density phenotype
- culture density of may1Δ yeast ([1]; may1Δ strain, unbuffered YNB, 50 μM): did not further reduce culture densities during either the logarithmic or the stationary phase
- inhibition of wild-type HIV-1 Pr (in words) (HIV-1 Pr wild-type): potent, subnanomolar inhibitor
- Ki for three drug resistance-associated HIV-1 Pr mutants [2]: 0.024 to 0.32 nM

SMILES: CC(C)CC(=O)N[C@H](C(=O)N[C@H](C(=O)N[C@@H](CC(C)C)[C@@H](O)CC(=O)N[C@@H](C)C(=O)N[C@@H](CC(C)C)[C@@H](O)CC(=O)O)C(C)C)C(C)C [PepA, pepstatin A] (Isovaleryl-VV[Sta]A[Sta]-OH)
- Ki (May1): 1.3 ± 0.1 nM

SMILES: CC(=O)N[C@H](C(=O)N[C@H](C(=O)N[C@@H](CC(C)C)[C@@H](O)CC(=O)N[C@@H](C)C(=O)N[C@@H](CC(C)C)[C@@H](O)CC(=O)O)C(C)C)C(C)C [acetyl pepstatin] (Ac-VV[Sta]A[Sta]-OH)
- Ki (May1): 3.3 ± 0.1 nM
